Measured values reported in patent US12116636B2, “Methods for evaluating tumor cell spheroids using 3D microfluidic cell culture device” (Dana-Farber Cancer Institute, Inc., priority 2017, dated 2024).
Read-outs that look alike come from different tables or passages of the source.

What was measured:
[1] = test system: off-target kinases; experiment: SelectScreen Kinase Profiling, biochemical single point inhibition; details: 1000 μM
Method: (§1) Biochemical single point inhibition and IC50 concentrations for TBK1, IKKε (IKBKE), and off-target kinases were determined at ThermoFisher Scientific using SelectScreen Kinase Profiling Services (Madison, WI, USA) (Tables S4A and S4B-1-7). To determine cellular potency, the human colorectal cancer carcinoma cell line HCT116 (ATCC, Manassas, VA) was maintained in T175 flasks in complete RPMI medium; RPMI 1640 supplemented with 10% FBS, 1× Penicillin-Streptomycin solution and 1× MEM (non-essential amino acids). HCT116 cells were grown to 90-95% confluency in T175 flasks containing complete RPMI medium and transfected in bulk using Lipofectamine 2000 (Invitrogen, Carlsbad, CA) with 70 μg of ISG54-luciferase reporter plasmid (Elim Biopharmaceuticals Inc., Hayward, CA). The reporter plasmid contains a luciferase gene expression cassette under the transcriptional regulation of the promoter of the human interferon stimulated gene 54 (ISG54). Transfection of the cells was allowed to take place for 6 hours, after which the cells were harvested by treatment with 0.25% trypsin EDTA (Corning Inc., Corning, NY). Trypsinized cells were added to 384-well poly-d-lysine treated black clear bottom tissue culture assay plates (Greiner Bio-One GmbH, Kremsmunster, Austria) at a density of 20,000 cells/well in 80 μL of complete RPMI medium and incubated overnight. After 16-18 hours post-transfection, the assay plates were washed with PBS (Corning Inc., Corning, NY), followed by addition of 80 μL/well of serum-free RPMI 1640 medium containing 1× Penicillin-Streptomycin solution, 1× MEM and 350 nL of DMSO or titrations of Compound 1. Compound 1 titrations were generated by 1.5-fold dilution steps in two overlapping serial dilution series to generate a 40-point compound dose range. After incubation at 37° C. for 1 hour, the cells were stimulated with Poly(I:C) (InvivoGen, San Diego, CA) at a final concentration of 15 μg/mL in Optimem media (Life Technologies, Rockville, MD). The assay plates were incubated for 5 hours at 37° C., followed by addition of One-Glo luciferase firefly reagent (Promega, Madison, WI) at 1:1 volume/well and luminescence was measured in an EnVision Multilabel Plate Reader (PerkinElmer, Santa Clara, CA). The EC50 values were calculated from the fit of the dose-response curves to a four-parameter equation. All EC50 values represent geometric mean values of a minimum of four determinations.

[2] = target: T1, off-target kinases (Homo sapiens, UniProt Q02156); experiment: as above; details: ATP Km, ZLYTE
T1 sequence (Q02156 1-737): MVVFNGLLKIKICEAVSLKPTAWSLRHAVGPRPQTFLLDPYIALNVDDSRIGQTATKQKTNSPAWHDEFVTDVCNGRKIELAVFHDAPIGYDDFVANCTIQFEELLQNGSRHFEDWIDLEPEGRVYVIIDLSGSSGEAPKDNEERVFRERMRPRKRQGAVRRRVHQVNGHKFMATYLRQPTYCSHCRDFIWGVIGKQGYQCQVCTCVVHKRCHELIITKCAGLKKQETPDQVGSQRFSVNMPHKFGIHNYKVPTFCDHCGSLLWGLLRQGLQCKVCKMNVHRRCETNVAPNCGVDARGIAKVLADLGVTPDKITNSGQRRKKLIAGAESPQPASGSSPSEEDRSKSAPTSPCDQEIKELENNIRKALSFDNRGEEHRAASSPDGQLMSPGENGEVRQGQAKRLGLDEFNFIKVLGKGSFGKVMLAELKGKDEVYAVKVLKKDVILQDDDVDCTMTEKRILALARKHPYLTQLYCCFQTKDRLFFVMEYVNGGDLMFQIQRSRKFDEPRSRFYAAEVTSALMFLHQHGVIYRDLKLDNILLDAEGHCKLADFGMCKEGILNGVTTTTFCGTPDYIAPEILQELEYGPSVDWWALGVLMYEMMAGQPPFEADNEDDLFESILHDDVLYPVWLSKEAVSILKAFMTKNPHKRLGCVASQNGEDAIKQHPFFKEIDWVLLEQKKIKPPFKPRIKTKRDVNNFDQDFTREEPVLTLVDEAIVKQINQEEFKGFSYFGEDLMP
Method: as §1

[3] = target: off-target kinases (Homo sapiens, UniProt Q16644); experiment: as above; details: MAPKAPK3, ATP Km app, ZLYTE
Chain of off-target kinases (Homo sapiens, UniProt Q16644) (Q16644 whole entry): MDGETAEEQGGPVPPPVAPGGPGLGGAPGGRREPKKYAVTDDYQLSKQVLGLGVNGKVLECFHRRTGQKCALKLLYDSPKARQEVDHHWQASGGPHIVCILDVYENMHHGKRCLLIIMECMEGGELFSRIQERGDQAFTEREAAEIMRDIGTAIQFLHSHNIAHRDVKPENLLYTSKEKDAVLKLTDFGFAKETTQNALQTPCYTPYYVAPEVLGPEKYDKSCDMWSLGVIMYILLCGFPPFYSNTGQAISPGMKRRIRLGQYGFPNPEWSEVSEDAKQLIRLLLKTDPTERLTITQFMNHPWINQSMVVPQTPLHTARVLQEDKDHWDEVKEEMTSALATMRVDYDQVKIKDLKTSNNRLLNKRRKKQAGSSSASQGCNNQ
Method: as §1

[4] = test system: human CD4+ and CD8+ T cells; experiment: IFNγ in supernatant of anti-CD3/anti-CD28 stimulated T cells; assay type: cell-based; details: dose-titration, 96 hours
Method: Freshly isolated human CD4+ and CD8+ T cells were obtained from AllCells (Alameda, CA, USA). Cells were spun down and resuspended in serum free Xvivol5 media (Lonza Walkersville, Inc., Chicago, IL, USA) supplemented with 5 ng/mL […] and incubated overnight at 37° C. Cells were plated on anti-CD3 coated plates (5 μg/mL OKT3, eBioscience™, Dallas, TX, USA, overnight) with 2 μg/mL anti-CD28 (eBioscience™, Dallas, TX, USA). Cells are treated in replicate plates with a dose-titration of Compound 1 for 24 hours for IL-2 and 96 hours for IFNT. IL-2 and IFNγ in the supernatant were measured using single- or multi-plex immunoassay (Mesoscale Discovery, Rockville, MD, USA). Jurkat T cell leukemia cells (clone E61 obtained from ATCC) plated on anti-CD3 coated plates were treated with a dose titration of Compound 1 for 24 hours. IL-2 in the supernatant was measured as described above.

[5] = EGFR (ErbB1) d746-750 (mutant), LanthaScreen Binding
[6] = PRKCB2 (PKC beta II), ATP Km app, ZLYTE
[7] = TEK (TIE2) mutant (mutation name not given), LanthaScreen

## N#Cc1cc(-c2ncnc(Nc3ccc(N4CCN(C5COC5)CC4)cc3)n2)ccc1OC1CCOCC1 [Compound 1, 5-(4-((4-(4-(oxetan-3-yl)piperazin-1-yl)phenyl)amino)-1,3,5-triazin-2-yl)-2-((tetrahydro-2H-pyran-4-yl)oxy)benzonitrile]
[1]; [5]
  % Inhibition 1: 14%
  % Inhibition 2: 13%
  % Inhibition Avg: 14%
[1]; FLT3 ITD, LanthaScreen Binding
  % Inhibition 1: 64%
  % Inhibition 2: 62%
  % Inhibition Avg: 63%
[1]; FYN A, LanthaScreen Binding
  % Inhibition 1: 16%
  % Inhibition Avg: 18%
[1]; LYN B, ATP Km app, ZLYTE
  % Inhibition 1: 56%
  % Inhibition 2: 50%
  % Inhibition Avg: 53%
[1]; MAP3K7/MAP3K7IP1 (TAK1-TAB1), LanthaScreen Binding
  % Inhibition 2: 22%
[1]; [6]
  % Inhibition 1: 12%
  % Inhibition 2: 8%
  % Inhibition Avg: 10%
[1]; SRC N1, ATP Km app, ZLYTE
  % Inhibition 1: 54%
  % Inhibition 2: 60%
  % Inhibition Avg: 57%
[1]; [7]
  % Inhibition 1: 40%
  % Inhibition 2: 41%
  % Inhibition Avg: 41%
[2]; PRKCE (PKC), read-out: % Inhibition 1
  inhibition: 1%
[2]; PRKCE (PKC), read-out: % Inhibition Avg
  inhibition: -3%
[2]; PRKCE PKC, read-out: % Inhibition 2
  inhibition: -6%
[3]; read-out: % Inhibition 1
  inhibition: 1%
[3]; read-out: % Inhibition 2
  inhibition: -8%
[3]; read-out: % Inhibition Avg
  inhibition: -3%
[4]
  secretion of IFN-7 from purified CD4+ and CD8+ T cells: enhanced secretion
